Results published in article PMC4658577 (Frontiers in Plant Science, 2015).

What was measured:
Type in all cases: cell-based
[1] = target: T1, cystic fibrosis transmembrane conductance regulator (CFTR) (Homo sapiens, UniProt P13569); assay: gradient concentrations inhibiting lignan-activated CFTR iodide influx in FRT cells
T1 construct: human wild-type CFTR cDNA

ANO1/CaCC (TMEM16A) [2] = target: T2, ANO1/CaCC (TMEM16A) (Homo sapiens, UniProt Q5XXA6); assay: Eact-induced short-circuit current in ANO1-expressing FRT cells, […]
T2 construct: ANO1 cDNA
T2 sequence (Q5XXA6 1-986): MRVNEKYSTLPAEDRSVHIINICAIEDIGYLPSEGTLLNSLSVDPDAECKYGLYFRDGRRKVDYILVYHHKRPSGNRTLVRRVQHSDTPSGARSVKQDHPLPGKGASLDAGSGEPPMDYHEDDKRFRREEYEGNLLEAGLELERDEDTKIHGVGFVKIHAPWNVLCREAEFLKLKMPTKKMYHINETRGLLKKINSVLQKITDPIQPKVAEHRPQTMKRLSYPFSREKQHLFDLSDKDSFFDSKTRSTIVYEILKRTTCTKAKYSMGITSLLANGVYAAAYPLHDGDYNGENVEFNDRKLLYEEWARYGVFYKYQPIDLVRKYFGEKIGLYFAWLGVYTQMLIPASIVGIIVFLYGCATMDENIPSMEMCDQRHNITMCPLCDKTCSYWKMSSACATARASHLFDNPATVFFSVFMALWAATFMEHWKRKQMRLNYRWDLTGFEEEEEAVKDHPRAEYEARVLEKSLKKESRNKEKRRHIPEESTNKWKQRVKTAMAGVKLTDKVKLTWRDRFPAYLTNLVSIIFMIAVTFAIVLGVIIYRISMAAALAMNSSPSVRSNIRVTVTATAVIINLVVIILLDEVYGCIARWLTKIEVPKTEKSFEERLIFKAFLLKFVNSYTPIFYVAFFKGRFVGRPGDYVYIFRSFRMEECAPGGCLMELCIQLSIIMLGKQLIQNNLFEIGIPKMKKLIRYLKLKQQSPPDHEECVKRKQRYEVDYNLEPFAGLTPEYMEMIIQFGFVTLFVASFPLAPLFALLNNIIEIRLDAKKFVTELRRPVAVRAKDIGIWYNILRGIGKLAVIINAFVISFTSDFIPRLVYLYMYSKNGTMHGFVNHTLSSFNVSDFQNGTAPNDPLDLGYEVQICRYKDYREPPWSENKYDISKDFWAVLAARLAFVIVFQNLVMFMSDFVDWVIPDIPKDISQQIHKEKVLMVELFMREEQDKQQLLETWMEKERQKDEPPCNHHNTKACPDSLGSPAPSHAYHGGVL

ANO1/CaCC (TMEM16A) [3] = target: T2, ANO1/CaCC (TMEM16A); assay: Eact-induced short-circuit current in ANO1-expressing FRT cells

T1 sequence (P13569 whole entry): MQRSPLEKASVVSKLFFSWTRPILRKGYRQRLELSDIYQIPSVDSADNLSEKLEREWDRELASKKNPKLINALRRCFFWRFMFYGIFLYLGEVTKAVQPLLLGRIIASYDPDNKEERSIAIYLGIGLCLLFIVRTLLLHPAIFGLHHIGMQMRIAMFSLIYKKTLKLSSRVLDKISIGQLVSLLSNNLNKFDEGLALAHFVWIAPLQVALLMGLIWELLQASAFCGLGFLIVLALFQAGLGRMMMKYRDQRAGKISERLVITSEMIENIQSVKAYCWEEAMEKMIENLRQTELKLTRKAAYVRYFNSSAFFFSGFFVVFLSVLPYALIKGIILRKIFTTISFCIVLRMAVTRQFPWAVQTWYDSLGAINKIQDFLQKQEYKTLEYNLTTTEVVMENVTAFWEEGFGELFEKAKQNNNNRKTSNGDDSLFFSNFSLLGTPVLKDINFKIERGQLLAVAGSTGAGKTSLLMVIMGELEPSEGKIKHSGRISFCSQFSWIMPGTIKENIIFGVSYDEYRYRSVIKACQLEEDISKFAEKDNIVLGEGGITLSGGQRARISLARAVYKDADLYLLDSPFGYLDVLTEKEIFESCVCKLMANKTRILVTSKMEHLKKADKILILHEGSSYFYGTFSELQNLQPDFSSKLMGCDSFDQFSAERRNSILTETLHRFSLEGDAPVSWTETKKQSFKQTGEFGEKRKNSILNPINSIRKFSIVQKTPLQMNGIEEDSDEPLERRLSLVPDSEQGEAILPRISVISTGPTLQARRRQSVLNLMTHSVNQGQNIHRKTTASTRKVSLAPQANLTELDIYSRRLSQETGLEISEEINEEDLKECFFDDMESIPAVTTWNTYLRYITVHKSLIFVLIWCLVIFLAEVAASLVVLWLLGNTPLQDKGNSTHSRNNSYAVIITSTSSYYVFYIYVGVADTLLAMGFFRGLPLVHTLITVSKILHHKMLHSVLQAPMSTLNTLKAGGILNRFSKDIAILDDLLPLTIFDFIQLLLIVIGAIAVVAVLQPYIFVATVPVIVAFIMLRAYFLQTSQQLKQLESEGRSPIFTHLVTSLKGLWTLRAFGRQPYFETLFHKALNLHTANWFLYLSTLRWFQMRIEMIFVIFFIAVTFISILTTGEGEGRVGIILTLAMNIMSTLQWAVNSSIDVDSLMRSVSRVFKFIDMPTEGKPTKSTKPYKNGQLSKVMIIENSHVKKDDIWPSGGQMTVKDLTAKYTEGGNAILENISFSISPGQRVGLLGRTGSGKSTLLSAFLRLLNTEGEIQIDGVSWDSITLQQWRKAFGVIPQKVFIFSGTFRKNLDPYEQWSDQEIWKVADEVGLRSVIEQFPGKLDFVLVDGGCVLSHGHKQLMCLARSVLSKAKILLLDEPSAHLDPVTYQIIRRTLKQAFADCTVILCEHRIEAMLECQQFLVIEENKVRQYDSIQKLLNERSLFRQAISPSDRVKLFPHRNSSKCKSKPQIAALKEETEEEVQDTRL

O=C(O)c1ccc(/C=C2\SC(=S)N(c3cccc(C(F)(F)F)c3)C2=O)cc1 [compound 172, CFTRinh-172]
gradient concentrations inhibiting lignan-activated CFTR iodide influx in FRT ce [1]: activation effect of these compounds could be inhibited by gradient concentrations of the known CFTR inhibitor CFTRinh-172

CCc1c(C)nc(SCC(=O)Nc2nc(-c3ccc(OC)cc3)cs2)[nH]c1=O [16A, T16Ainh-A01]
Eact-induced short-circuit current in ANO1-expressing FRT cells, 30 μM (ANO1/CaCC (TMEM16A) [2]): Eact-induced ANO1-mediated short-circuit current was completely abolished by the specific inhibitor of ANO1 T16Ainh-A01

COc1ccc([C@H]2OC[C@H]3[C@@H]2CO[C@@H]3c2ccc(OC)c(OC)c2)cc1OC [eudesmin]
IC50 (ANO1/CaCC (TMEM16A) [3]): 200 µM
